Results taken from patent US20090082322A1, “Gender Differences in Experimental Aortic Aneurysm Formation” (THE REGENTS OF THE UNIVERSITY OF MICHIGAN, priority 2004, published 2009).

Key:
MMP-9 = assay: Aortic MMP-9 immunohistochemistry, ED-1 colocalization and quantitative PCR; format: in vivo, Sprague-Dawley rats
From the text: In other experiments, male rats were randomized to implantation of an estrogen pellet or sham implantation (n=13, each). The former involved the subcutaneous implantation of a 21-day slow-release 0.1-mg 17-β-estradiol pellet (Innovative Research of America, Sarasota, Fla.) in the posterior neck. Sham rats underwent the same implantation procedure without insertion of any pellet. This particular estradiol dose results in serum estradiol levels at 2 to 3 weeks of 44.7±6.1 pg/mL compared with 15.0±2.2 pg/mL in control rats (P<0.05). Rat aortas from both groups were subjected to elastase perfusion 5 days later. The aortas were then removed for study 7 or 14 days after elastase perfusion.
Immunohistochemistry was undertaken after deparaffinization, rehydration, and unmasking using Trilogy (Cell Marque Corp, Hot Springs, Ariz.) in a Princess model pressure cooker (Cell Marque). Endogenous peroxidase activity was then blocked using 3% hydrogen peroxide in methanol. To help ensure that rejection was not occurring in elastase-perfused or transplanted animals, anti-T lymphocyte immunohistochemistry was performed. Specifically, antirat CD3 monoclonal antibody (BD Pharmingen, San Diego, Calif.) was used as the primary antibody and mouse IgG Vectastain (Vector Laboratories, Burlingame, Calif.) as the secondary antibody. Rat spleen was used as the positive control for anti-CD3 staining. […]
Expression of MMP-9 and β-actin mRNA was determined using quantitative PCR. […] The resultant cDNA was amplified by Taq Polymerase (Promega, Madison, Wis.) in a SmartCycler quantitative PCR system (Cepheid, Sunnyvale, Calif.). […]
MMP-9 forward primer, CGCCAACTATGACCAGGATA (SEQ ID NO: 1); MMP-9 reverse primer, GTT GCC CCC AGT TAC AGT (SEQ ID NO: 2); β-actin forward primer, ATGGGTCAGAAGGATTCCTATGTG (SEQ ID NO: 3); β-actin reverse primer, CTTCATGAGGTAGTCAGTCAGGTC (SEQ ID NO: 4). […] Quantification of mRNA levels used ΔCt values, calculated by the formula: […]
Expression of the target gene in ratio to β-actin expression was calculated by the formula: […]

MMP-2 = MMP-2 activity in conditioned media of IL-1β stimulated male RASMCs; format: cell-based, rat; settings: 1×10^−10 to 1×10^−6 molar, with IL-1β
Method: Experiment I: Adult male and female rat aortic smooth muscle cells (RASMCs) were grown in Dulbecco's modified Eagle medium (DMEM) with 10% fetal bovine serum (FBS). RASMCs at passages four through eight were stimulated in serum-free media for 48 hours with IL-1β at doses encountered in human aortic aneurysms (2 ng/mL). The culture media was collected, and mRNA was extracted from the RASMCs. After reverse transcription to cDNA, gene expression of MMP-2 and TIMP-2 (a major MMP-2 inhibitor) was measured by real-time polymerase chain reaction. MMP-2 protein levels in conditioned media were measured by Western blotting, with MMP-2 and TIMP-2 activity quantified by standard and reverse gelatin zymography. Experiment II: Male RASMCs were incubated in DMEM containing 17-β-estradiol and IL-1β, MMP-2 activity in the conditioned media was then determined.

Structure (SMILES): C[C@]12CC[C@@H]3c4ccc(O)cc4CC[C@H]3[C@@H]1CC[C@@H]2O [17-β-estradiol]
- aortic MMP-9 staining (MMP-9; immunohistochemistry, estradiol treated rats compared with sham rats): less evident
- aortic MMP-9 mRNA expression (MMP-9; quantitative PCR normalized to β-actin, 7 days after elastase perfusion, sham 0.12±0.04, P=0.11): 0.0017±0.004 mRNA copies
- colocalization of aortic ED-1 and MMP-9 (MMP-9; rats treated with estradiol compared with sham rats): less prominently stained cells
- MMP-2 activity in male RASMCs (MMP-2): not altered
